We go through 14 compounds from US6875781B2, “Pyridines and uses thereof” (Cell Therapeutics, Inc., priority 2003, dated 2005).

For the assay, the target named is T1, LPAAT-β (Homo sapiens, UniProt O15120).
T1 construct: the full-length human LPAAT-β cDNA was amplified by PCR from the DNA template pCE9.LPAAT-β; poly-histidine tag (N); made in house; host or cells: Sf9 insect cells (baculovirus, pFastBac HTc); membrane fraction used
T1 sequence (O15120 24-278): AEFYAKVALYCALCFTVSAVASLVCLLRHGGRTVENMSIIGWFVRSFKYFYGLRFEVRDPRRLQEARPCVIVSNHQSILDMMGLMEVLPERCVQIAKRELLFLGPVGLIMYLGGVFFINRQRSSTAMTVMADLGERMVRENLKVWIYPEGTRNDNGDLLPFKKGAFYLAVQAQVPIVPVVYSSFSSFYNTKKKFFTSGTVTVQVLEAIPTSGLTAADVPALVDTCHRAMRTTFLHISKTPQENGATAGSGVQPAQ
In words: LPAAT-β cell-free assay. The class given is biochemical. As to conditions: Sf9 cell membrane overexpressing recombinant LPAAT-β. The source says: For the construction of Baculovirus expression vectors, the full-length human LPAAT-β cDNA was amplified by PCR from the DNA template pCE9.LPAAT-β (West et at., DNA Cell Biol. 16:691-701 (1997)) using the primers 5′-[…] ATGGAGCTGTGGCCGTCTC-3′ (olpb1F; SEQ ID NO:1) and 5′-CAGGCTCTAG ACTACTGGGCCGGCTGCAC-3′ (olpb1R; SEQ ID NO:2). The ˜870 bp fragment generated was reamplified by PCR using the primers 5′[…] TCCGAAGAAGATC-3′ (olpb2F; SEQ ID NO:3) and 5′-CAGGCTCTAGCTACTGGGC CGGCTGCAC-3′ (olpb1R; SEQ ID NO:2). The ˜890 bp fragment generated as then cleaved with Sal I and Xba I for insertion into pFastBac™ HTc vector (Life Technologies, Gaithersberg, Md.) between the Sal I and Xba I sites for the generation of the plasmid pFB.LPAAT-β. This plasmid was then transformed into E. coli DH10Bac™ (Life Technologies, Gaithersberg, Md.) for the generation of recombinant Bacmid DNA for transfection in HighFive (Invitrogen, San Diego, Calif.) or SF9 insect cells for the production of recombinant Baculovirus stocks using the protocol described in the Bac-to-Bac® Baculovirus Expression System (Life Technologies, Gaithersberg, Md.), a eukaryotic expression system for generating recombinant baculovirus through site-specific transposition in E. coli. Viral stocks harvested from the transfected cells can then be used to infect fresh insect cells for the subsequence expression of LPAAT-β fusion protein with a poly-histidine tag and a myc-epitope near its N-terminus. The membrane fraction from these Sf9 cells would be the source of LPAAT enzyme.
For the preparation of membranes from Sf9 Cells, all steps are performed on ice or at 4° C. Sf9 cell pellets (˜10^8 cells) were thawed and resuspended in 1-2 ml of buffer A (20 mM Hepes, pH 7.5, 1 mM DTT, 1 mM EDTA, 20% w/v glycerol, 1 mM Benzamidine, 1 μg/ml soybean trypsin inhibitor (SBTI), 1 μg/ml pepstatin A) w/o DTT but with 1 mM Pefabloc. The cells were lysed by sonication using a Branson Sonifier at output=2, duty cycle=2, 10 pulses each at 10 s. with the tip of small sonicator probe submerged but not touching the walls. DTT was then added to 1 mM from a 1 M stock. The samples were centrifuged at 1500 rpm for 5 min. The low speed supernatant was saved and centrifuged (TLA 100.3 rotor, polycarbonate tubes, 2 ml/tube or 1.5 ml/tube minimum) at 100000×g for 1 hr. The high speed pellet was resuspend in Buffer A with a probe sonicator (10 pulses @ output #2 and duty cycle 20%) as a source of LPAAT enzyme.
LPAAT-β catalyzes the transfer of an acyl group from a donor such as acyl-CoA to LPA. The transfer of the acyl group from acyl-CoA to LPA leads to the release of free CoA, which can be reacted with the thiol reagent, 5,5′-dithiobis(2-nitrobenzoic acid) (DTNB). The reaction between DTNB and the free sulfhydryl group from CoA generates a yellow-colored product, 3-carboxylato-4-nitrothiophenolate (CNP), that absorbs at 413 nm. LPAAT-β derived from Sf9 cell membrane overexpressing LPAAT-β were resuspended in HEPES saline buffer (20 mM HEPES pH 7.5, 150 mM NaCl), 1 mg/ml BSA and 72 μl aliquots were distributed into 96-well microtiter plates. 8 μl of compound of interest at 200 μM dissolved in 100% DMSO was added into each well. 20 μl of 1 mM 18:1-CoA and 1 mM sn-1-18:1 lysoPA was then added to each well to initiate the reaction and allowed to run at room temperature for 25 min. 100 μl of 1 mM DTNB in 100% ethanol was then added to each well to quench the reaction and for color development. The absorbance at 405 nm, measured using a spectrophotometer plate reader, is proportional to the activity of LPAAT-β in the sample. This colorimetric assay was used for the high throughput screening of LPAAT inhibitors.
The radiometric assay was carried out in Sf9 cell membrane overexpressing LPAAT-β resuspended in HEPES-saline buffer, pH 7.5, 1 mg/ml BSA, 1 mM EDTA and 200 μM [^14C]18:1-CoA and 200 μM sn-1-18:1 lysoPA. […]
Consider `COc1ccc(Cl)cc1-c1cc(Nc2ccc(C)cc2)cc(Cl)n1` [Example 1, [2-Chloro-6-(5-chloro-2-methoxy-phenyl)-pyridin-4-yl]-p-tolyl-amine], for which the IC50 stood at 200 nM.
Consider `COc1ccc(Cl)cc1-c1cc(Cl)cc(Nc2ccc(C)cc2)n1` [Example 2, [4-Cloro-6-(5-chloro-2-methoxy-phenyl)-pyridin-2-yl]-p-tolyl-amine], for which the IC50 was greater than 40000 nM.
`COc1ccc(Cl)cc1-c1cc(N)cc(Nc2ccc(C)cc2)n1` [Example 3, 6-(5-Chloro-2-methoxy-phenyl)-N*2*-p-tolyl-pyridine-2,4-diamine]: the IC50 stood at 29000 nM.
For the compound `COc1ccc(Cl)cc1-c1cc(N)cc(Nc2ccc(Cl)cc2)n1` [Example 4, 6-(5-Chloro-2-methoxy-phenyl)-N*2*-(4-chloro-phenyl)-pyridine-2,4-diamine], the IC50 stood at 6500 nM.
For the compound `COc1ccc(Cl)cc1-c1cc(Nc2ccc(C)cc2)cc(NC(C)=O)n1` [Example 5, N-[6-(5-chloro-2-methoxy-phenyl)-4-p-tolylamino-pyridin-2-yl]-acetamide], the IC50 turned out to be 34000 nM.
Next, `COc1ccc(Cl)cc1-c1cc(Nc2ccc(C)cc2)cc(N)n1` [Example 6, 6-(5-Chloro-2-methoxy-phenyl)-N*4*-p-tolyl-pyridine-2,4-diamine]: 35000 nM.
The value for `COc1ccc(Cl)cc1-c1cc(Nc2ccc(Cl)cc2)cc(N)n1` [Example 7, 6-(5-Chloro-2-methoxy-phenyl)-N*4*-(4-chloro-phenyl)-pyridine-2,4-diamine] was 18000 nM.
Next, `COc1ccc(Cl)cc1-c1cc(N)nc(Nc2ccc(Cl)cc2)c1` [Example 8, 4-(5-Chloro-2-methoxy-phenyl)-N-(4-chloro-phenyl)-pyridine-2,6-diamine]: 40 nM; `COc1ccc(Cl)cc1-c1cc(N)nc(Nc2ccc(C)cc2)c1` [Example 9]: 240 nM; `CCOc1ccc(Cl)cc1-c1cc(N)nc(Nc2ccc(C)cc2)c1` [Example 10]: 490 nM.
On to `CCOc1ccc(Cl)cc1-c1cc(N)nc(Nc2ccc(Cl)cc2)c1` [Example 11, 4-(5-Chloro-2-ethoxy-phenyl)-N-(4-chloro-phenyl)-pyridine-2,6-diamine], for which the IC50 stood at 50 nM.
Next, `CCOc1ccc(Cl)cc1-c1cc(N)nc(Nc2ccc(C=O)cc2)c1` [Example 12, 4-[6-Amino-4-(5-chloro-2-ethoxy-phenyl)-pyridin-2-ylamino]-benzaldehyde]: 50 nM; `CCOc1ccc(Cl)cc1-c1cc(N)nc(Nc2ccc(CO)cc2)c1` [Example 13, {4-[6-Amino-4-(5-chloro-2-ethoxy-phenyl)-pyridin-2-ylamino]-phenyl}-methanol]: 100 nM; `COc1ccc(Cl)cc1-c1cc(N)nc(Nc2ccc(C=O)cc2)c1` [Example 14, 4-[6-Amino-4-(5-chloro-2-methoxy-phenyl)-pyridin-2-ylamino]-benzaldehyde]: 260 nM.
